Key:
HCC827 GR cells [1] = test: MTS survival assay, gefitinib-resistant HCC827 GR cells; conditions: HCC827 GR cell lines / GR5; single drugs or combination
Experimental: This assay, a colorimetric method for determining the number of viable cells, is based on the bioreduction of 3-(4,5-dimethylthiazol-2-yl)-5-(3-carboxymethoxyphenyl)-2-(4-sulfophenyl)-2H-tetrazolium (MTS) by cells to a formazan product that is soluble in cell culture medium, can be detected spectrophotometrically and was performed according to previously established methods (3, 31, 10).
All experimental points were set up in six to twelve wells and all experiments were repeated at least three times. […] The curves were fitted using a non-linear regression model with a sigmoidal dose response.

[2] = tested on: ERBB3 and Gab1 association with p85 in HCC827 GR cells; test: anti-p85 immunoprecipitation in HCC827 GR cells; type: cell-based; conditions: 1 μM each drug, 6 hours (FIG. 2C)
[3] = tested on: CHO cells co-expressing MET and ERBB3; conditions: PHA-665,752 1 μM
Experimental: Lysates were immunoprecipitated with anti-p85 antibodies and the immunoprecipitates were probed with anti-phospho-tyrosine, anti-ERBB-3 and anti-p85 antibodies (* indicates ERBB3 on the PTyr blot). In parallel, the lysates were analyzed by Western blotting and probed with the indicated antibodies. […] Lentiviral shRNA constructs containing a scrambled (SC) sequence, ERBB3 specific sequence, a control sequence (CTRL) or GFP were infected into SNU638 cells (Methods). Seventy-two hours following infection, the cells were lysed and probed with indicated antibodies. […] C. […] Growth of SNU-638 cells was assayed by an MTS assay 5 days following infection of shRNA constructs in B. Growth is normalized to the SC shRNA. […] The resulting proteins were lysed and probed with the indicated antibodies. […] The resulting lysates were probed with either ERBB3 or MET.

HCC827 GR cells [4] = test: Western blot of EGFR/ERBB3/PI3K/Akt signaling in HCC827 GR cells; type: cell-based; conditions: 1 μM each drug, 6 hours (FIG. 2B)
[5] = tested on: EGFR mutant HCC827 cells and ERBB2 amplified BT474 cells; test: p85 immunoprecipitation and Western blot in control cell lines HCC827 and BT474; type: cell-based; conditions: 1 μM, 6 hours (FIG. 3A)
[6] = tested on: H1993 NSCLC cells, SNU638 and MKN45 gastric cancer cells; test: p85 immunoprecipitation and Western blot in MET amplified cell lines; conditions: 1 μM, 6 hours (FIG. 3A)
Experimental: Lysates were immunoprecipitated with anti-p85 antibodies and the immunoprecipitates were probed with anti-phospho-tyrosine, anti-ERBB-3 and anti-p85 antibodies (* indicates ERBB3 on the PTyr blot). In parallel, the lysates were analyzed by Western blotting and probed with the indicated antibodies.
Cells grown under the previously specified conditions were lysed in the following lysis buffer: 20 mM Tris, pH 7.4/150 mM NaCl/1% Nonidet P-40/10% glycerol/1 mM EDTA/1 mM EGTA/5 mM sodium pyrophosphate/50 mM NaF/10 nM (3-glycerophosphate/1 mM sodium vanadate/0.5 mM DTT/4 μg/ml leupeptin/4 μg/ml pepstatin/4 μg/ml apoprotein/1 mM PMSF. After cell lysis, lysates were centrifuged at 16,000×g for 5 min at 4° C. The supernatant was used for subsequent procedures. Western blot analyses were conducted after separation by SDS/PAGE electrophoresis and transfer to nitrocellulose membranes. Immunoblotting was performed according to the antibody manufacturers' recommendations. Antibody binding was detected using an enhanced chemiluminescence system (New England Nuclear Life Science Products Inc.).
Anti-ErbB-3 antibody was obtained from Lab Vision. […] The total Met (C-28) antibody was purchased from Santa Cruz Biotechnology (Santa Cruz, Calif.).

HCC827 cells [7] = test: MTS survival assay of HCC827 cells with HGF in the presence of gefitinib; type: cell-based; conditions: 50 ng/ml of HGF (FIG. 10 top left)
Excerpt: MET activity was induced by treating HCC827 cells with its ligand, HGF (hepatocyte growth factor).

HCC827 cells [8] = test: crystal violet staining of viable HCC827 cells, gefitinib and HGF; type: cell-based; conditions: 10 days, gefitinib 1 uM, HGF 50, 10 or 2 ng/ml (FIG. 10 bottom)
Experimental: […] cells were seeded in a 10 cm petri dish and treated with the indicated conditions for 10 days. Gefitnib was used at 1 uM, and HGF was used at 50, 10, or 2 ng/ml. The plates were then stained with crystal violet to visualize viable cells.

HCC827 cells [9] = test: Western blot of AKT phosphorylation in HCC827 treated with gefitinib and HGF; type: cell-based; conditions: gefitinib alone or with HGF, 6 hours (FIG. 10 top right)

## CC#CC(=O)Nc1ccc2ncnc(Nc3cccc(Br)c3)c2c1 [CL-387,785]
HCC827 GR cells [1]
  growth of HCC827 GR cells under drug (MTS): did not suppress the growth

## Cc1[nH]c(/C=C2\C(=O)Nc3ccc(S(=O)(=O)Cc4c(Cl)cccc4Cl)cc32)c(C)c1C(=O)N1CCC[C@@H]1CN1CCCC1 [PHA-665,752]
[2]
  co-precipitation of ERBB3 and Gab1 with p85: blocks Gab-1 association with p85
[3]; CHO co-expressing MET and ERBB3, gefitinib 3 mM (so in the source), lapatinib 3 μM, PP2 10 μM, 6 hours (FIG. 3D)
  ERBB3 phosphorylation: blocked
[3]; CHO transfected with MET and ERBB3, gefitinib 3 μM, lapatinib 3 μM (FIG. 3E)
  p85 co-precipitation with ERBB3: inhibited
HCC827 GR cells [4]
  ERBB3 and Akt phosphorylation: minimal effect on P-Akt levels
HCC827 GR cells [4]; listed as PHA-665752
  ERBB3 and Akt phosphorylation: no significant effect on p-ERBB3 or p-AKT
[5]
  PI3K signaling: has no effect on PI3K signaling
[6]
  ERBB3 and Akt phosphorylation: only inhibited
  ERBB3 association with p85: disrupted
HCC827 GR cells [1]
  growth of HCC827 GR cells under drug (MTS): resistant

## HGF: hepatocyte growth factor, ligand of MET
HCC827 cells [7]
  survival in the presence of gefitinib (MTS): markedly improved survival
HCC827 cells [8]
  viable cells (crystal violet): increases with increased concentrations
HCC827 cells [9]
  AKT phosphorylation: at least partially reversed

From patent US11008620B2, “Methods for treating cancer resistant to ErbB therapeutics” (Dana-Farber Cancer Institute, Inc., priority 2007, dated 2021)
